Assay results: patent EP0100983A1, “Steroid compounds with choleretic activity, a process for their preparation, and therapeutic compounds which contain them as active principle” (PROTER S.p.A., priority 1982, dated 1984)
Where a name gives a salt, the structure may show the parent alone.

Experiments:
[1] = tested on: male albino rats of Wistar stock; assay: Choleretic activity in bile-duct (choledocus) cannulated rats, method of D'Armour and coll.: bile flow (test a) and bile dry residue (test b); assay type: in vivo; details: rat
Excerpt: By way of example, details are given of the activity of 3α,7β-dihydroxy-6/3-cholan-24-oyl acetic acid (A) and of its trimebutine salt (B) compared with ursodeoxycholic acid (C), using the method of D'Armour and coll. (J. Pharmacol. Exp. Theor. 133, 400 (1961)).
This method consists essentially of cannulating the choledocus of the treated animals and collecting the bile before and after treatment with the drugs.
24 male albino rats of Wistar stock were used having an average weight of 400 g and divided into 4 batches of 6 animals each.
In the method used, after the surgical cannulation, the bile was allowed to flow out for about 30-45 minutes in order to regulate the flow, after which the basic bile was collected for 60 minutes.
After this time, the drug was administered into the subpyloric duodenal tract at a dose of 0.5 mM/kg, and the bile was collected in suitable graduated test tubes, the samples of each animal being split into periods of exactly 60 minutes, for a time of 3 hours after treatment. The following were then determined for each animal: • a) the quantity of bile which had flown out after each hour, and • b) the dry residue obtained after drying each sample under vacuum.
The tested compounds were solubilised with stoichiometric quantities of M NaOH, to obtain solutions or suspensions at pH 10.
Physiological solution (S.F.) adjusted to pH 10 by M NaOH was used for the control group.
The data obtained in the described experiments by administering equimolar doses of the products A and B and of the comparison drug C are shown on the accompanying graphs.

guinea pig ileum = assay: In vitro antispastic activity on the guinea pig ileum against acetylcholine bromide; details: relative to trimebutine hydrochloride
Excerpt: Compound B was also used in "in vibro" antispastic activity tests on the guinea pig ileum, using acetylcholine bromide as […] in canparison with trimebutine hydrochloride.

Wistar rats = assay: Acute toxicity by oral administration in the rat; assay type: in vivo
Method: Acute toxicity was also tested by oral administration of the acid A and the salt B in the rat in comparison with ursodeoxycholic acid. 60 Wistar rats of the two sexes were used having an average weight of 200 g, divided randomly into three batches of 10 males and 10 females and treated orally by gastric probe with the following products: • batch 1: ursodeoxycholic acid (C) - 15% suspension in a 10% solution of gum arabic; […] equivalent to 3 g/kg of product; • batch 2: product (A) - 15% suspension in a 10% solution of gum arabic: 20 ml/kg equivalent to 3 g/kg of product; • batch 3: product (B) - 15% suspension in a 10% solution of gum arabic: 20 ml/kg equivalent to 3 g/kg of product.
The animals, kept under observation for two weeks, registered no case of death or other toxicity symptom.

**Q.** For `CC(CCC(=O)OCC(=O)O)C1CCC2C3C(O)CC4CC(O)CCC4(C)C3CCC12C` (stereo not drawn) [Compound B, 2-dimethylamino-2-phenylbutyl 3,4,5-trimethoxybenzoate salt of 3α ,7β-dihydroxy-6β-cholan-24-oyl acetic acid], which “activity on the bile flow after 3 hours” value ([1]; 0.5 mM/kg intraduodenal, 3 hours after treatment, Figure 1) is on record?
**A.** The value was “high”.

**Q.** And the antispastic activity (guinea pig ileum)?
**A.** Its antispastic activity is “approximately double that of trimebutine”.

**Q.** What about the “toxicity (concluding statement)” value (Wistar rats; oral) of the same compound?
**A.** Its value is “absolute absence of toxicity”.

**Q.** For `CC(CCC(=O)OCC(=O)O)C1CCC2C3C(O)CC4CC(O)CCC4(C)C3CCC12C` (stereo not drawn) [A, 3α,7β-dihydroxy-6β-cholan-24-oyl acetic acid], which “maximum intensity action on the bile flow” value ([1]; 0.5 mM/kg into the subpyloric duodenal tract, compared with ursodeoxycholic acid (C) at equal dose, Figure 1) is on record?
**A.** Its value is “practically equivalent to that of the comparison drug”.

**Q.** What about the “activity on the bile flow after 1 hour” value ([1]; 0.5 mM/kg intraduodenal, 1 hour after treatment, relative to comparison drug C, Figure 1) of the same compound?
**A.** The value was “slightly less”.

**Q.** And the “activity on the bile flow after 2 hours” value ([1]; 0.5 mM/kg intraduodenal, 2 hours after treatment, relative to comparison drug C, Figure 1)?
**A.** The value was “greater”.

**Q.** What about the “dry residual content of the bile (indicative of the bile salt content), maximum values” ([1]; 0.5 mM/kg intraduodenal, compared with ursodeoxycholic acid, Figure 2) of the same compound?
**A.** The value was “practically equal to that obtained after treatment with ursodeoxycholic acid”.

**Q.** What about the “tolerability when administered orally in a single dose” value (Wistar rats; single oral dose 3 g/kg) of the same compound?
**A.** Its value is “very well tolerated”.

**Q.** For `C[C@H](CCC(=O)O)[C@H]1CC[C@H]2[C@@H]3[C@@H](O)C[C@@H]4C[C@H](O)CC[C@]4(C)[C@H]3CC[C@]12C` [ursodeoxycholic acid, 3α ,7β-dihydroxy-6β-cholan-24-oic acid, reference compound], which “duration of the action” value ([1]; 0.5 mM/kg intraduodenal, bile dry residue test (Figure 2)) is on record?
**A.** The value was 1 h.
